Laboratory results taken from patent US11274332B2, “Methods of administering 3,4-diaminopyridine” (SERB SA, priority 2011, dated 2022).

Experiments:
rat hepatocytes = test: In vitro metabolism of 14C-amifampridine in rat hepatocytes (Example 1); assay type: in vitro ADME
Experimental: (§1) The objective of this hepatocyte study was to determine the extent of metabolism, complete metabolic profile and metabolite characterization of amifampridine phosphate in several species with ^14C-amifampridine phosphate for a cross species comparison. The following procedures were used to study the metabolism in rat (Example 1), dog (Example 2), and human hepatocytes (Example 3).
(§2) The cryopreserved hepatocytes were removed from storage, quickly thawed in a 37° C. water bath for 1 to 2 min, and transferred to a 50 ml tube containing pre-warmed InVitroGRO HT medium (Celsis Inc., Baltimore). The cell suspension was mixed by gentle inversion and the cells were pelleted by centrifugation at 50 to 75×g for 5 min. The supernatant medium was removed and the cells were resuspended in Williams' Medium E. Hepatocyte viability was assessed by using trypan blue exclusion. Hepatocyte density was determined by counting cells with a hemocytometer and the density was adjusted with Williams' Medium E to achieve a final density of 1,000,000 cells/mL. […] The supernatant medium was removed and the cells were resuspended in cold Williams' Medium E. The cell density was then determined using a hemocytometer and the density was adjusted with Williams' Medium E to achieve a final density of 1,000,000 cells/mL. […]

dog hepatocytes = test: In vitro metabolism of 14C-amifampridine in dog hepatocytes (Example 2); assay type: in vitro ADME
Experimental: as §1, §2

[1] = Rat PK study, IV and oral TID amifampridine phosphate (Example 4); assay type: in vivo; details: rat plasma
Experimental: The objective of this study was to determine the absolute bioavailability of amifampridine phosphate and the pharmacokinetics of amifampridine and its 3-N-acetyl metabolite upon single-dose IV and single-day oral dose (TID) administration.
Amifampridine phosphate was administered by IV bolus at 0.8 mg/kg (in saline) to 6 rats/sex and by oral gavage (in water) TID (approximately 6 hours apart) at dose levels of 2, 8, and 25 mg/kg/dose (equivalent to 6, 24, and 75 mg/kg/day) to 12 rats/sex/group, with oral Dose 1 given to fasted rats and Dose 2 and 3 with food ad libitum. For IV bolus dose and oral Dose 1 (dose administration No. 1), blood samples were collected from three animals/sex/timepoint at predose and 0.083 (IV only), 0.17, 0.25, 0.33, 0.5, 0.75, 1, 1.25 (IV only), 1.5, 2, 2.5, 3, and 6 hours post-dose; 0.17, 0.5, and 6 hours following the second oral dose (dose administration No. 2); and 0.17, 0.25, 0.33, 0.5, 0.75, 1, 1.5, 2, 3, 4, 6, 8, and 10 hours following the third oral dose (dose administration No. 3). The second and third oral doses were given at 6 and 12 hours, respectively, after the first dose. LC-MS/MS was used to quantify amifampridine, 3-N-acetyl and 4-N-acetyl amifampridine metabolites in rat plasma samples. […] Noncompartmental analysis was applied to the mean plasma amifampridine and 3-N-acetyl metabolite concentration data for male and female rats. […]

Row | abundance of major circulating metabolite relative to 3,4-DAP [1] | Compound | formation of single major acetylated amifampridine metabolite (rat hepatocytes) | conversion of 3,4-DAP to its metabolite (dog hepatocytes)
1 |  | Nc1ccncc1N [3,4-DAP, 3,4-diaminopyridine] | extensive | No conversion
2 | more abundant than 3,4-DAP | CC(=O)Nc1cnccc1N [3-N-acetyl amifampridine, N-(4-aminopyridin-3-yl)acetamide] |  | 
